Patent publication US12509466B2, “Methods and compounds for treating paramyxoviridae virus infections” (Gilead Sciences, Inc., priority 2010, dated 2025)
Read-outs that look alike come from different tables or passages of the source.

Key:
[1] = biological target: T1, RSV ribonucleoprotein (RNP) complexes (Human respiratory syncytial virus A, UniProt P28887); test: RSV RNP transcription assay; type: biochemical, RSV A2; details: reduction of total radiolabled transcripts by 50%, 90 minute incubation at 30° C.
T1 construct: The supernatant (S3) fraction, containing the enriched RSV RNP complexes, was collected; endogenous in cells; host or cells: HEp-2 cells infected with RSV A2; crude detergent-extracted S3 fraction
Description: HEp-2 cells were plated at a density of 7.1×10^4 cells/cm^2 in MEM+10% fetal bovine serum (FBS) and allowed to attach overnight at 37° C. (5% CO2). Following attachment, the cells were infected with RSV A2 (MOI=5) in 35 mL MEM+2% FBS. At 20 hours post-infection, the media was replaced with MEM+2% FBS supplemented with 2 μg/mL actinomycin D and returned to 37° C. for one hour. The cells were then washed once with PBS and treated with 35 mL of PBS+250 μg/mL lyso-lecithin for one minute, after which all liquid was aspirated. The cells were harvested by scrapping them into 1.2 mL of buffer A [50 mM TRIS acetate (pH 8.0), 100 mM potassium acetate, 1 mM DTT and 2 μg/mL actinomycin D] and lysed by repeated passage through an 18 gauge needle (10 times). The cell lysate was placed in ice for 10 minutes and then centrifuged at 2400 g for 10 minutes at 4° C. The supernatant (S1) was removed and the pellet (P1) was disrupted in 600 uL of Buffer B [10 mM TRIS acetate (pH 8.0), 10 mM potassium acetate and 1.5 mM MgCl2] supplemented with 1% Triton X-100 by repeated passage through an 18 gauge needle (10 times). The resuspended pellet was placed in ice for 10 minutes and then centrifuged at 2400 g for 10 minutes at 4° C. The supernatant (S2) was removed and the pellet (P2) was disrupted in 600 uL of Buffer B supplemented with 0.5% deoxycholate and 0.1% Tween 40. The resuspended pellet was placed in ice for 10 minutes and then centrifuged at 2400 g for 10 minutes at 4° C. The supernatant (S3) fraction, containing the enriched RSV RNP complexes, was collected and the protein concentration determined by UV absorbance at 280 nm. Aliquoted RSV RNP S3 fractions were stored at −80° C.
Transcription reactions contained 25 μg of crude RSV RNP complexes in 30 μL of reaction buffer [50 mM TRIS-acetate (pH 8.0), 120 mM potassium acetate, 5% glycerol, 4.5 mM MgCl2, 3 mM DTT, 2 mM ethyleneglycol-bis(2-aminoethylether)-tetraacetic acid (EGTA), 50 μg/mL BSA, 2.5 U RNasin (Promega), ATP, GTP, UTP, CTP and 1.5 uCi [α-^32P] NTP (3000 Ci/mmol)]. The radiolabled nucleotide used in the transcription assay was selected to match the nucleotide analog being evaluated for inhibition of RSV RNP transcription. […] The three remaining nucleotides were added at a final concentration of 100 μM.
To determine whether nucleotide analogs inhibited RSV RNP transcription, compounds were added using a 6 step serial dilution in 5-fold increments. Following a 90 minute incubation at 30° C., the RNP reactions were stopped with 350 μL of Qiagen RLT lysis buffer and the RNA was purified using a Qiagen RNeasy 96 kit. Purified RNA was denatured in RNA sample loading buffer (Sigma) at 65° C. for 10 minutes and run on a 1.2% agarose/MOPS gel containing 2M formaldehyde. […]

RSV strain A2 = test: Anti-RSV cytoprotection assay in Hep2 cells; type: cell-based; details: human respiratory syncytial virus, HEp-2, 96 h
Description: Antiviral activity against RSV is determined using an in vitro cytoprotection assay in Hep2 cells. […] The method used is similar to methods previously described in published literature (Chapman et al., Antimicrob Agents Chemother. 2007, 51(9):3346-53.)
Hep2 cells are obtained from ATCC (Manassas, VI) and maintained in MEM media supplemented with 10% fetal bovine serum and penicillin/streptomycin. Cells are passaged twice a week and kept at subconfluent stage. Commercial stock of RSV strain A2 (Advanced Biotechnologies, Columbia, MD) is titered before compound testing to determine the appropriate dilution of the virus stock that generates desirable cytopathic effect in Hep2 cells.
For antiviral tests, Hep2 cells are seeded into 96-well plates 24 hours before the assay at a density of 3,000 cells/well. On a separate 96 well plate, compounds to be tested are serially diluted in cell culture media. Eight concentrations in 3-fold serial dilution increments are prepared for each tested compound and 100 uL/well of each dilution is transferred in duplicate onto plates with seeded Hep2 cells. Subsequently, appropriate dilution of virus stock previously determined by titration is prepared in cell culture media and 100 uL/well is added to test plates containing cells and serially diluted compounds. Each plate includes three wells of infected untreated cells and three wells of uninfected cells that served as 0% and 100% virus inhibition control, respectively. Following the infection with RSV, testing plates are incubated for 4 days in a tissue culture incubator. After the incubation, RSV-induced cytopathic effect is determined using a Cell TiterGlo reagent (Promega, Madison, WI) followed by a luminescence read-out. The percentage inhibition is calculated for each tested concentration relative to the 0% and 100% inhibition controls and the EC50 value for each compound is determined by non-linear regression as a concentration inhibiting the RSV-induced cytopathic effect by 50%. Ribavirin (purchased from Sigma, St. Louis, MO) is used as a positive control for antiviral activity.

[2] = Cytotoxicity in uninfected Hep2 cells; type: cell-based; details: human, CellTiter Glo
Description: Cytotoxicity of tested compounds is determined in uninfected Hep2 cells in parallel with the antiviral activity using the cell viability reagent in a similar fashion as described before for other cell types (Cihlar et al., Antimicrob Agents Chemother. 2008, 52(2):655-65.). The same protocol as for the determination of antiviral activity is used for the measurement of compound cytotoxicity except that the cells are not infected with RSV. Instead, fresh cell culture media (100 uL/well) without the virus is added to tested plates with cells and prediluted compounds. Cells are then incubated for 4 days followed by a cell viability test using CellTiter Glo reagent and a luminescence read-out. Untreated cell and cells treated with 50 ug/mL puromycin (Sigma, St. Louis, MO) are used as 100% and 0% cell viability control, respectively. The percent of cell viability is calculated for each tested compound concentration relative to the 0% and 100% controls and the CC50 value is determined by non-linear regression as a compound concentration reducing the cell viability by 50%.

[3] = tested on: Parainfluenza 3 strain C 243; test: Parainfluenza cytoprotection assay in Vero cells; type: cell-based; details: 168 h, Parainfluenza 3 strain C 243, 7 days, MTS
Description: (§1) The Parainfluenza Cytoprotection assay uses Vero cells and Parainfluenza 3 strain C 243. Briefly virus and cells are mixed in the presence of test compound and incubated for 7 days. […] Therefore, antiviral effect or cytoprotection is observed when compounds prevent virus replication. Each assay plate contains cell control wells (cells only), virus control wells (cells plus virus), compound toxicity control wells (cells plus compound only), compound colorimetric control wells (compound only), as well as experimental wells (compound plus cells plus virus). Cytoprotection and compound cytotoxicity are assessed by MTS (CellTiter®96 Reagent, Promega, Madison WI) dye reduction. […]
The virus used for this assay is Parainfluenza 3 strain C 243. […] The virus is resuspended and diluted into tissue culture medium such that the amount of virus added to each well is the amount determined to give between 85 to 95% cell killing at 6-7 days post-infection.
(§2) At assay termination (7 days post-infection), the assay plates are stained with the soluble tetrazolium-based dye MTS (3-(4,5-dimethylthiazol-2-yl)-5-(3-carboxymethoxyphenyl)-2-(4-sulfophenyl)-2H-tetrazolium; CellTiter®96 Reagent, Promega) to determine cell viability and quantify compound toxicity. […]

[4] = Compound cytotoxicity in Vero cells (MTS); type: cell-based; details: African green monkey (Cercopithecus aethiops), concentration resulting in 50% cell death, read-out: TC50
Description: as §1
as §2, with “toxicity. MTS is metabolized by the mitochondrial enzymes of metabolically active cells to yield a soluble formazan product, allowing the rapid quantitative analysis of cell viability and compound cytotoxicity.” for “toxicity.”

[5] = RSV-induced cytopathic effect, Hep2 cells, RSV strain A2, 4 days, Cell TiterGlo, read-out: EC50

T1 sequence (P28887 whole entry, looked up, one chain of several): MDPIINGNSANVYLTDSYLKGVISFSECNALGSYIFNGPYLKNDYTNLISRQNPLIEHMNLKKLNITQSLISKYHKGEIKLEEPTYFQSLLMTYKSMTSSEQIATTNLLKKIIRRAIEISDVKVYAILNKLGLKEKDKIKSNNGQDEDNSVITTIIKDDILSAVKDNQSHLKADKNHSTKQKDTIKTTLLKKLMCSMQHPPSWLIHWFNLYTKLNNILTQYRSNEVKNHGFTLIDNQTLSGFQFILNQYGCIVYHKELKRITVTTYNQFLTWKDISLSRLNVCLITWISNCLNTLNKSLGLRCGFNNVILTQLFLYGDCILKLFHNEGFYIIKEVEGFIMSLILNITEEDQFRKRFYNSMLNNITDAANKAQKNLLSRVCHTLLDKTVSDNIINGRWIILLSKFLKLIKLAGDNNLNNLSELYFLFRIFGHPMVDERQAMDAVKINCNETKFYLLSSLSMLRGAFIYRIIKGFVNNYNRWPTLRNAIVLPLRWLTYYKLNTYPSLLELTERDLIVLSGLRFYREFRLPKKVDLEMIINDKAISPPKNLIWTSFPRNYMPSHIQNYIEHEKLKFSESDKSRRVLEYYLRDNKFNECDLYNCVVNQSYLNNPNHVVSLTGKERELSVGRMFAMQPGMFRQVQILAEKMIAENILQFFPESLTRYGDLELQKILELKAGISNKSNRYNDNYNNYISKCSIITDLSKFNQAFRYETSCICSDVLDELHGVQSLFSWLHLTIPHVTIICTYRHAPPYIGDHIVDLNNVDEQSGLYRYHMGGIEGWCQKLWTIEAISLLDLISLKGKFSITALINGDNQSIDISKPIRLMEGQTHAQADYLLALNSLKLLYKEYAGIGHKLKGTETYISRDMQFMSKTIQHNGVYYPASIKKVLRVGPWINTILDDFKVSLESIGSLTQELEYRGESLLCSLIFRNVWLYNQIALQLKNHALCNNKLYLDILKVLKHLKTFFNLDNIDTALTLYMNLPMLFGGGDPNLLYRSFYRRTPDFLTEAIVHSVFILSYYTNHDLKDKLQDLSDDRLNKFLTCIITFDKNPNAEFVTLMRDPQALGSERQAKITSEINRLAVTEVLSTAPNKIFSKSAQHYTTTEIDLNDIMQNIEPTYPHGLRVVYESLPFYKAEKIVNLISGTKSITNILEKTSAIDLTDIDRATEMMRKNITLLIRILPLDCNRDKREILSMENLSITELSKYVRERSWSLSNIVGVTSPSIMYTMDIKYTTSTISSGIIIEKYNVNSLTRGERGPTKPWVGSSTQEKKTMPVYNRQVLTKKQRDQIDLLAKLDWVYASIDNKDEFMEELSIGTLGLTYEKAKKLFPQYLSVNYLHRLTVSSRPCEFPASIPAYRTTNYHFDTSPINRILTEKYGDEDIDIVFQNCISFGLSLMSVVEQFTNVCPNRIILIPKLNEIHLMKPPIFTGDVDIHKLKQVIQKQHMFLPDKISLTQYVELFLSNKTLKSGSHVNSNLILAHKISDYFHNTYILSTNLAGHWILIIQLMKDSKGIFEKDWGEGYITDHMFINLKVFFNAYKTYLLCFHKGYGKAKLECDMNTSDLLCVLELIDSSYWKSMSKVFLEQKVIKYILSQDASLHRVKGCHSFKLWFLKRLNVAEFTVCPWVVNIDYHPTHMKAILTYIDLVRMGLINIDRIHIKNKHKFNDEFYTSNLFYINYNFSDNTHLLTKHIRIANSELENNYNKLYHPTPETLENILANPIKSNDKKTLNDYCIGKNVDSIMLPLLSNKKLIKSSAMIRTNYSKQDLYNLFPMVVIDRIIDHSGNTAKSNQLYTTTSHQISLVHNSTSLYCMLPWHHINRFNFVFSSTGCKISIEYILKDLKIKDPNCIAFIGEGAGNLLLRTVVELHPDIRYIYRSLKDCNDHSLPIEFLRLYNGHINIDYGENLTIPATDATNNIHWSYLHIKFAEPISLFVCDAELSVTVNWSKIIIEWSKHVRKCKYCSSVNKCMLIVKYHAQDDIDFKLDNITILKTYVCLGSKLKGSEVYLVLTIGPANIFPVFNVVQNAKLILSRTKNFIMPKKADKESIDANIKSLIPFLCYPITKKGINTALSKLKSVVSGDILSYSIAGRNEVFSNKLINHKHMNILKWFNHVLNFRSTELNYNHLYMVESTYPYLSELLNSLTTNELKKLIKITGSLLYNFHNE

| EC50 (RSV strain A2; [5]) | SMILES | IC50 [1] | CC50 at 4 days [2] | also measured |
| --- | --- | --- | --- | --- |
| – | C[C@@]1(c2ccc3c(N)ncnn23)O[C@H](COP(=O)(O)OP(=O)(O)OP(=O)(O)O)[C@@H](O)[C@H]1F [Compound 6, ((2R, 3R, 4R, 5S)-5-(4-aminopyrrolo[1,2-f][1,2,4]triazin-7-yl)-4-fluoro-3-hydroxy-5-methyltetrahydrofuran-2-yl)methyl Tetrahydrogen Triphosphate] | 3.6 µM | – | – |
| – | N#C[C@@]1(c2ccc3c(N)ncnn23)O[C@H](COP(=O)(O)OP(=O)(O)OP(=O)(O)O)[C@@H](O)[C@H]1F [Compound 20, ((2R,3R,4R,5R)-5-(4-aminopyrrolo[1,2-f][1,2,4]triazin-7-yl)-5-cyano-4-fluoro-3-hydroxytetrahydrofuran-2-yl)methyl Tetrahydrogen Triphosphate] | 0.8 µM | – | – |
| – | CCOC(=O)[C@H](C)NP(=O)(OC[C@H]1O[C@@](C#N)(c2ccc3c(N)ncnn23)[C@H](O)[C@@H]1O)Oc1ccccc1 (stereo partly drawn) [Compound 10, (2S)-ethyl 2-((((2R,3S,4R,5R)-5-(4-aminopyrrolo[1,2-f][1,2,4]triazin-7-yl)cyano-3,4-dihydroxytetrahydrofuranyl)methoxy)(phenoxy)phosphorylamino)propanoate] | – | 47 µM | EC50 (RSV strain A2): 0.18 µM |
| 6.5 µM | CCOC(=O)[C@H](C)NP(=O)(N[C@@H](C)C(=O)OCC)OC[C@H]1O[C@@](C#N)(c2ccc3c(N)ncnn23)[C@H](O)[C@@H]1O [Compound 12, (2S,2'S)-diethyl 2,2′-((((2R,3S,4R,5R)-5-(4-aminopyrrolo[1,2-f][1,2,4]triazinyl)-5-cyano-3,4-dihydroxytetrahydrofuranyl)methoxy)phosphoryl)bis(azanediyl)dipropanoate] | – | > 100 µM | – |
| – | C#C[C@@]1(c2ccc3c(N)ncnn23)O[C@H](COP(=O)(O)OP(=O)(O)OP(=O)(O)O)[C@@H](O)[C@H]1O [Compound 18, ((2R, 3S, 4R, 5S)-5-(4-aminopyrrolo[1,2-f][1,2,4]triazin-7-yl)-5-ethynyl-3,4-dihydroxytetrahydrofuran-2-yl)methyl tetrahydrogen triphosphate] | 1.6 µM | – | – |
| 0.48 µM | N#C[C@@]1(c2ccc3c(N)ncnn23)O[C@H](CO)[C@@H](O)[C@H]1O [Compound 1, (2R, 3R, 4S, 5R)-2-(4-aminopyrrolo[1,2-f][1,2,4]triazin-7-yl)-3,4-dihydroxy (hydroxymethyl)tetrahydrofuran-2-carbonitrile] | – | > 100 µM | IC50 [3]: 1.71 µM; CC50 at 7 days [4]: > 30 µM |
| – | C[C@@]1(c2ccc3c(N)ncnn23)O[C@H](COP(=O)(O)OP(=O)(O)OP(=O)(O)O)[C@@H](O)[C@H]1O [Compound 19, ((2R, 3S, 4R, 5S)-5-(4-aminopyrrolo[1,2-f][1,2,4]triazin-7-yl)-3,4-dihydroxymethyltetrahydrofuran-2-yl)methyl Tetrahydrogen Triphosphate] | 1.5 µM | – | – |
| 0.15 µM | CC(C)(C)C(=O)SCCOP(=O)(OCCSC(=O)C(C)(C)C)OC[C@H]1O[C@@](C#N)(c2ccc3c(N)ncnn23)[C@H](O)[C@@H]1O [Compound 15, S,S′-2,2′-((((2R,3S,4R,5R)-5-(4-aminopyrrolo[1,2-f][1,2,4]triazin-7-yl)-5-cyano-3,4-dihydroxytetrahydrofuran-2-yl)methoxy)phosphoryl)bis(oxy)bis(ethane-2,1-diyl) bis(2,2-dimethylpropanethioate)] | – | > 100 µM | – |
| 34 µM | C#C[C@@]1(c2ccc3c(N)ncnn23)O[C@H](CO)[C@@H](O)[C@H]1O [Compound 13, (2S,3R,4S,5R)-2-(4-aminopyrrolo[1,2-f][1,2,4]triazin-7-yl)-2-ethynyl (hydroxymethyl)tetrahydrofuran-3,4-diol] | – | > 100 µM | – |
| – | C#C[C@@]1(c2ccc3c(N)ncnn23)O[C@H](COP(=O)(OCCSC(=O)C(C)(C)C)OCCSC(=O)C(C)(C)C)[C@@H](O)[C@H]1O [Compound 16, S,S′-2,2′-((((2R, 3S, 4R, 5S)-5-(4-aminopyrrolo[1,2-f][1,2,4]triazin-7-yl)-5-ethynyl-3,4-dihydroxytetrahydrofuran-2-yl)methoxy)phosphoryl)bis(oxy)bis(ethane-2,1-diyl) bis(2,2-dimethylpropanethioate)] | – | > 100 µM | EC50 (RSV strain A2): 3.3 µM |
| 2.7 µM | C[C@@]1(c2ccc3c(N)ncnn23)O[C@H](CO)[C@@H](O)[C@H]1O [Compound 14] | – | 92 µM | IC50 [3]: 5.23 µM; CC50 at 7 days [4]: > 30 µM |
